Results reported in patent US7888050B2, “Method for quantifying phosphokinase activity on proteins” (Life Technologies Corporation, priority 2000, dated 2011).

Target: T1, human EGFR (Homo sapiens, UniProt P00533)
T1 construct: purchased Sigma E-2645; host or cells: A431 human carcinoma cells (natural source)
Assay: EGFR autophosphorylation, EGFR [pY845] PSSA ELISA
Type: biochemical
Conditions: purified human EGFR, 1 uM ATP, 30 minutes at 30° C.; FIG. 16
Source text: EGFR System: This model system presents an analysis of the cell surface receptor Epidermal Growth Factor Receptor (EGFR). This protein is a large transmembrane signaling protein with multiple phosphorylation sites consisting of phospho-threonine, phospho-serine and phospho-tyrosine residues. EGFR protein: Human EGFR protein was purified from human carcinoma A431 cells by affinity purification. The product is purchased from Sigma (St. Louis, Mo.; cat #E-2645). EGFR [pY^11731 PSSA: Rabbit antiserum was produced against a chemically synthesized phosphopeptide derived from the region of EGFR that contains tyrosine 1173. The sequence is conserved in human, mouse, and rat. Antibody was purified from serum by sequential epitope-specific chromatography. […] The final product is generated by affinity chromatography using an EGFR derived peptide that is phosphorylated at tyrosine 1173. […] EGFR [Py^8451 PSSA: Prepared essentially as EGFR [pY^1173] PSSA but using chemically synthesized phosphopeptides from the region that contains tyrosine 845. EGFR [Pan] monoclonal antibody: The capture antibody is a mouse monoclonal antibody, clone 199.12, available commercially from Neomarkers, Inc. (Union City, Calif.). […] This antibody will bind to both non-phosphorylated and phosphorylated forms of EGFR protein and therefore is used as an initial capture antibody in the EGFR ELISA. EGFR [Pan] […]

T1 sequence (P00533 25-1210): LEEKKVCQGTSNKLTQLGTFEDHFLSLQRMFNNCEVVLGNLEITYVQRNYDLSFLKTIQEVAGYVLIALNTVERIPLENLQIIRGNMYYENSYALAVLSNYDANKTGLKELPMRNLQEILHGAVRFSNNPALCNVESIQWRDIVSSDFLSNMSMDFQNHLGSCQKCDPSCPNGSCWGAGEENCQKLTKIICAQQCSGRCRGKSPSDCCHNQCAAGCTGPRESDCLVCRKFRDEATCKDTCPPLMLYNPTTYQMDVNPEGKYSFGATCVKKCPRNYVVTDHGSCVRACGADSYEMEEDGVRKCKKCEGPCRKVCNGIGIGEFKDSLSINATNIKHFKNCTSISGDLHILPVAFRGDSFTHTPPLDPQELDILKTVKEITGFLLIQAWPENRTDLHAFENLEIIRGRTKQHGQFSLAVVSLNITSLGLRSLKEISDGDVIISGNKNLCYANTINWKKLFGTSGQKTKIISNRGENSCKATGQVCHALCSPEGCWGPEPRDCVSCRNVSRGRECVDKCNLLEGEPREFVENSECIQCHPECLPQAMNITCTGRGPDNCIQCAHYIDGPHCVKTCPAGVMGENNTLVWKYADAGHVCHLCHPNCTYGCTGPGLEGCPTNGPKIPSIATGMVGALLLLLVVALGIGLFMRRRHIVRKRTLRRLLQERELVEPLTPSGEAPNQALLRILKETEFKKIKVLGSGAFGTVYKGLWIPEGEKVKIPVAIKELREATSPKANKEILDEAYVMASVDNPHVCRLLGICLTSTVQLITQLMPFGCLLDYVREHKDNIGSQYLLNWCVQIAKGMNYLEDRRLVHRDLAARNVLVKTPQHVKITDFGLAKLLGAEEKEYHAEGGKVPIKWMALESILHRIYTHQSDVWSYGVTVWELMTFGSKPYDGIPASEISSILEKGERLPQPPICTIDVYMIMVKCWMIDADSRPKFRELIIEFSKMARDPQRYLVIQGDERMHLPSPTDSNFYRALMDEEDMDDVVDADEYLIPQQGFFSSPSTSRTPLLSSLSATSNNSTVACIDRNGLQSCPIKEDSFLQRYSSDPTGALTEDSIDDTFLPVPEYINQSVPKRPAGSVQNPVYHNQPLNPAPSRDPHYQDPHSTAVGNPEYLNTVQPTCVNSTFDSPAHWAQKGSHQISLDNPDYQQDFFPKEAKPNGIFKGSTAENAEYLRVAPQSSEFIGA

CNc1cc2c(Nc3cccc(Br)c3)ncnc2cn1 [PD158780]
EGFR [pY845] phosphorylation (autophosphorylation): inhibition of that activity
